Measurements as given in patent US9987211B2, “Sunless tanning compounds and compositions” (REGENTS OF THE UNIVERSITY OF MINNESOTA, priority 2013, dated 2018).

Test system: guinea pig skin
Experiment: Pigment changes with topical application on guinea pig skin (melanin stimulation)
Format: in vivo
Description: Compounds 10, 117 and 123 in a solution of 75% PG/25% DMSO at 300 μM and 600 μM were provided in light tight containers and stored at 4 degrees C. Solutions were brought to room temp and vortexed prior to each use. Female Guinea pigs were shaved with electric clippers and the remaining stubble removed with Nair. The dorsal area of each guinea pig was divided into 2-3 sections. Treatment with compounds/vehicle began immediately after Nair application. 25 μL of each solution was applied to the assigned treatment site twice daily for 5 days. Hair removal, monitoring and photography continued once weekly for 30 days. Photos were taken with a Nikon D80 Digital SLR camera and Miravex Antera Melanin sensing camera.

[1] = 0.025 mL of 600 μM applied on guinea pig skin twice daily for five consecutive days, by day 15

Molecule | melanin stimulation relative to surrounding untreated skin (0.025 mL of 300 μM applied on guinea pig skin twice daily for five consecutive days, by day 8) | melanin stimulation relative to surrounding untreated skin [1]
C[C@@]12C(=O)NC(=O)N3CCCN4C(=O)NC(=O)[C@]1(C)[C@H]4[C@H]32 [Compound 10] | marked melanin stimulation | 
Thymidine dinucleotide 5′-phosphate [reference compound] |  | marked melanin stimulation
Cc1cn(CC(Cn2cc(C)c(=O)[nH]c2=O)C(=O)O)c(=O)[nH]c1=O [Compound 117] |  | marked melanin stimulation
